According to patent publication US6936637B2, “Prevention of apoptosis in non-cancerous cells” (University of Tennessee Research Foundation, priority 1999, dated 2005):
Blank lines part the entries; values can stand above or below the compound they belong to.

Legend:
IEC-6 cells [1] = assay: Floating cell count (detachment-induced cell death, apoptosis); type: cell-based, rat; settings: for number of floating cells compared to control: FIG. 4; for floating cells (percentage of total cell count): camptothecin exposure
Procedure: IEC-6 cells, having the ATCC designation CRL-1592, were obtained from the American Type Culture Collection at passage 13. The IEC-6 cells are normal, non-cancerous intestinal epithelial cells derived from fetal rat crypt cells. These cells are non-tumorigenic and retain the undifferentiated character of epithelial stem cells. The IEC-6 cell stock was maintained in T-150 flasks in a humidified, 37° C. incubator in an atmosphere of 90:10 air:CO2. The medium used was Dulbecco's modified Eagle medium (DMEM) (Gibco BRL, Grand Island, N.Y.) with 5% heat inactivated fetal bovine serum (FBS) (Sigma, St. Louis, Mo.) and 10 μg insulin and 50 μg gentamicin sulfate per ml. The stock was passaged weekly at 1:10, fed 3 times per week, and passages 15-20 were used. The cells were plated on day 0 at a density of 6.25×10^4 cells/cm^2 in T-150 flasks in DMEM/dFBS (dialyzed fetal bovine serum with 10,000 molecular weight cut-off) (Sigma, St. Louis, Mo.) with or without the treatment compound or compounds described in the Examples that follow. The cells were fed on day 2. On day 3, medium was removed and replaced with serum-free medium. On day 4, camptothecin (Sigma, St. Louis, Mo.) in a DMSO vehicle was added to a concentration of 20 μM into the serum-free medium containing the cells of Example 1 for 3 to 18 hours, with the vehicle (DMSO) added to controls. Detachment-induced cell death (DICD) is a well recognized form of apoptosis in anchorage-dependent cell types, such as intestinal epithelial cells. Floating cells were poured into a 25 ml tube and the monolayer was washed once with HBSS without calcium and magnesium. This wash was then combined into the tube with the floating cells. Attached cells were taken up with 0.05% trypsin plus 0.53 MM EDTA, followed by one wash of the flask with DMEM/5% FBS. Cell counts were determined separately for floating and attached cells by counting on a Model ZF Coulter counter. Floating cells were expressed as a percentage of the total cell count obtained by combining the number of floating and attached cells.

caspase 3 [2] = assay: Caspase 3 activity assay (DEVD-pNA) in cell lysates; type: cell-based, rat; settings: for caspase 3 activity over time, attached cells: camptothecin exposure 0 to 18 hours, control cells or DFMO treated cells
Procedure: In a separate flask, following camptothecin or DMSO addition, the cells were harvested after 16 hours in order to obtain a sufficient number of floating cells for analysis. Floating cells were then poured off to be counted and were combined with one wash with cold DPBS (Sigma, St. Louis, Mo.). The attached cells were then harvested for determination of caspase activity. 10 ml of DPBS was added to the flask and the monolayer was scraped and collected into a 25 ml tube. The flask was washed once with 10 ml of DPBS and combined into the 25 ml tube. The cells were pelleted by centrifugation at 800× g for 5 minutes. The supernatant was discarded and the pellet was resuspended in 1 ml of cold DPBS and transferred into a microfuge tube. The cells were pelleted by centrifugation at 10,000× g at 4° C. for 10 minutes. The supernatant was discarded and the cells were lysed in 100 ml of ice cold cell lysis buffer (50 mM HEPES, pH 7.4, 0.1% CHAPS, 1 mM DTT, 0.1 mM EDTA, 0.1% NP40) (Sigma, St. Louis, Mo.). The assay for caspase activity was carried out in a 96-well plate. Into each well was placed 20 μl of cell lysate, 70 μl of assay buffer (50 mM HEPES, pH 7.4, 0.1% CHAPS, 100 mM NaCl, 10 mM DTT, 1 mM EDTA ) and 10 μl of caspase 3 calorimetric substrate (2 mM DEVD-pNA prepared in assay buffer, a caspase specific peptide that is conjugated to the chromogen p-nitroanilide) (Biomol Research Laboratories, Plymouth Meeting, Pa.). The 96-well plate was incubated at 37° C. for 2 hours, during which time the caspase in the sample was allowed to cleave the chromophore pNA from the substrate molecule. Absorbance readings at 405 nm were made after the 2 hour incubation, with the caspase activity being directly proportional to the color reaction. Protein was determined for each sample using the BCA method (Pierce, Rockford, Ill.) and a standard curve for p-nitroanilide was carried out. Results for caspase activity were expressed as pmol of pNA released/mg protein/minute.

IEC-6 cells [3] = assay: Intracellular polyamines by HPLC; type: cell-based, rat; settings: for level of putrescine in the cells / level of spermidine in the cells / level of spermine in the cells: cells grown in presence of DFMO or DEGBG
Procedure: IEC-6 cells were grown for 4 days in the presence or absence of DFMO (Marion Merrel Dow, Cincinnati, Ohio) the highly specific inhibitor of ODC. DFMO treatment depletes putrescine within 3 hours. Depletion of spermidine requires 24 hours and significant depletion (about 50%) of spermine requires 3 days.
Intracellular polyamines were analyzed by high performance liquid chromatography. Cells were plated in 60 mm dishes at 6.25×10^4 cells/cm^2 and grown in DMEM/dFBS with or without DFMO or DEGBG. After washing the monolayer three times with ice-cold DPBS, 0.5 M perchloric acid was added and the samples were then frozen at −80° C. until ready for extraction, dansylation, and HPLC. The standard curve encompassed the range of 0.31-10 μM. Values that fell >25% below the curve were considered not detectable. The level of […] was determined by the Bradford method, as described in Anal. Biochem., 72:248-254 (1976).

caspase 3 [4] = assay: Western blot of caspase 3 levels; type: cell-based, rat; settings: polyamine depleted cells (DFMO)
Procedure: Total cell protein (50 μg) from cell extracts prepared for caspase 3 assay was separated on 15% SDS-PAGE and transferred to nitrocellulose membranes for western blotting. Equal loading of protein was confirmed by staining the nitrocellulose membrane with Ponceau S (Sigma, St. Louis, Mo.). The membrane was then probed with an antibody directed against caspase 3 (CPP32) (Santa Cruz Biotechnology, Santa Cruz, Calif.). The immunocomplexes were visualized by the enhanced chemiluminescence detection system.

CaCo-2 cells [5] = assay: Floating cell count in cancerous cells; type: cell-based, human
Procedure: Cancerous human intestinal CaCo-2 cells were grown in similar culture media as described in Example 1, except that one group of the cells was grown in a medium not containing DFMO and another group was grown in a medium containing DFMO. After four days of growth, camptothecin at a dose of 20 μM was added to the culture medium of each of the groups. After 6 hours, the number of floating cells in the media of the two groups of cells was determined. The study was repeated using a different inducer of apoptosis, a combination of 20 ng/ml of tumor necrosis factor-α (TNF-α) and 25 μg/ml of cycloheximide.

CaCo-2 cells [6] = assay: Examples 1 to 8 repeated in cancerous cells; type: cell-based, human; settings: CaCo-2 cells substituted for IEC-6
Source text: Studies described in Examples 1 to 8 are repeated, except that cancerous human intestinal CaCo-2 cells (ATCC no. HTB37) are substituted for the IEC-6 rat intestinal cell lines.

mast cell tumor = assay: Dog with mast cell tumor treated with Co60 gamma radiation; type: in vivo; settings: DFMO 100 mg/kg/day orally for four days, adult dog
Procedure: DFMO at a dosage of 100 mg/kg/day is administered orally for four days to an adult dog suffering from a mast cell tumor on one of its rear legs. The tumor is treated in multiple sessions by exposure to Co^60 gamma radiation as indicated for this type of tumor. The field of exposure to the radiation exceeds the boundaries of the tumor.

IEC-6 cells [7] = assay: Nucleosomal DNA fragmentation assay; type: cell-based, rat; settings: camptothecin 20 μM
Procedure: Cells were collected for determining the presence or absence of DNA fragmentation. After treatment with camptothecin (or vehicle), floating cells were poured off and combined with one DPBS wash of the monolayer. […] The attached cells were collected for DNA fragmentation by scraping in DPBS and combining with one wash of the flask with DPBS. […] The nucleosomal fragmentation assay was carried out by isolating DNA from the cells using the TACS apoptotic DNA laddering kit (Trevigen, Gaithersburg, Md.) and analyzing the labeled DNA by agarose gel electrophoresis following the manufacturer's instructions.

caspase 3 [8] = settings: putrescine up to 5 μM added to cell extracts from DFMO treated cells
[9] = 0 time, control cells or DFMO treated cells
[10] = 18 hours, control cells or DFMO treated cells
[11] = cells grown 4 days with DFMO, 6 hours after camptothecin

Compound: NCCCC(N)(C(=O)O)C(F)F (racemic) [DFMO, DL-œ-difluoromethylornithine]
number of floating cells compared to control (IEC-6 cells [1]; DFMO alone): decreased the number of floating cells
delay of onset of apoptosis (IEC-6 cells [1]; DFMO treated cells exposed to camptothecin): up to 12 hours
floating cells (percentage of total cell count) (IEC-6 cells [1]; [9]): 2.2%
floating cells (percentage of total cell count) (IEC-6 cells [1]; 12 hours, DFMO treated cells): 9.3%
floating cells (percentage of total cell count) (IEC-6 cells [1]; [10]): 29.1%
decrease in the number of floating cells compared to control cells treated with camptothecin (IEC-6 cells [1]; [11]): ~3 fold
protection against apoptosis (IEC-6 cells [1]; cells grown 4 days with DFMO, DMSO (vehicle) or camptothecin, 6 hours): protected against both DMSO (vehicle) and camptothecin-induced apoptosis
percentage of floating cells (IEC-6 cells [1]; day 1 of treatment): 19.2%
percentage of floating cells (IEC-6 cells [1]; day 2 of treatment): 12.4%
percentage of floating cells (IEC-6 cells [1]; day 4 of treatment): 2.2%
exposure to camptothecin after which significant increase in caspase 3 activity was observed (caspase 3 [2]; DFMO treated cells): 18 h
caspase 3 activity over time, attached cells (caspase 3 [2]): did not show remarkable increases in caspase 3 activity for up to 12 hours
lower caspase 3 activity compared to control (caspase 3 [2]; [11]): approximately 50%
time required for depletion of spermidine (IEC-6 cells [3]; DFMO treatment of IEC-6 cells): 24 h
time required for significant depletion of spermine (IEC-6 cells [3]; DFMO treatment of IEC-6 cells): 3 days
time to depletion of putrescine (IEC-6 cells [3]; DFMO treatment of IEC-6 cells): ≤ 3 h
depletion of spermine (IEC-6 cells [3]; DFMO treatment, 3 days): about 50%
level of putrescine in the cells (IEC-6 cells [3]): decreases
level of spermidine in the cells (IEC-6 cells [3]): decreases
level of spermine in the cells (IEC-6 cells [3]): decreases
level of caspase 3 (Western blot) compared with controls (caspase 3 [4]): not significantly different
protection of cancerous cells from apoptosis (CaCo-2 cells [5]; apoptosis induced by camptothecin or TNF-α + cycloheximide): did not protect the cancerous cells from apoptosis
number of floating cells (CaCo-2 cells [5]; with DFMO 4 days, 20 ng/ml TNF-α and 25 μg/ml cycloheximide): 6.2 +/− .6
number of floating cells (CaCo-2 cells [5]; with DFMO 4 days, camptothecin 20 μM, 6 hours): 3.7 +/− .24
number of floating cells (CaCo-2 cells [5]; with DFMO 4 days, no TNF-α + cycloheximide): 4.8 +/− .5
number of floating cells (CaCo-2 cells [5]; with DFMO 4 days, no camptothecin): 3.1 +/− .06
inhibition of apoptosis (CaCo-2 cells [6]): No inhibition of apoptosis is observed
death of surrounding normal tissues (mast cell tumor): visually noticeable decrease in death of the surrounding normal tissues
effect on tumor (mast cell tumor): the tumor is killed

Compound: CCC(=NNC(=N)N)C(CC)=NNC(=N)N [DEGBG, diethylglyoxal bis-(guanylhydrazone)]
percentage of floating cells (IEC-6 cells [1]; day 1 of treatment): 26.6%
percentage of floating cells (IEC-6 cells [1]; day 2 of treatment): 26.9%
percentage of floating cells (IEC-6 cells [1]; day 4 of treatment): 23.3%
level of putrescine in the cells (IEC-6 cells [3]): significantly increased
level of spermidine in the cells (IEC-6 cells [3]): decreasing
level of spermine in the cells (IEC-6 cells [3]): decreasing

Compound: CC[C@@]1(O)C(=O)OCc2c1cc1n(c2=O)Cc2cc3ccccc3nc2-1 [camptothecin]
increase in the number of floating cells compared to DMSO control group (IEC-6 cells [1]; camptothecin 20 μM, within 6 hours): 8 fold
floating cells (percentage of total cell count) (IEC-6 cells [1]; [9]): 6.2%
floating cells (percentage of total cell count) (IEC-6 cells [1]; [10]): 49.3%
onset of camptothecin induced apoptosis (number of floating cells) (IEC-6 cells [1]; control cells (no DFMO)): ≤ 3 h
caspase 3 activity, detached cells (caspase 3 [2]; camptothecin 20 μM, detached (floating) cells): increased caspase 3 activity
increase in caspase 3 activity, attached cells (caspase 3 [2]; camptothecin 20 μM, harvested after 16 hours, attached cells): 7 fold
caspase 3 activity over time, attached cells (caspase 3 [2]): increased progressively with time
DNA fragmentation, attached cells (IEC-6 cells [7]; attached cells): did not show remarkable DNA fragmentation
DNA fragmentation, detached cells (IEC-6 cells [7]; detached (floating) cells): showed characteristic nucleosomal DNA fragments
number of floating cells (CaCo-2 cells [5]; no DFMO, camptothecin 20 μM, 6 hours): 2.7 +/− .06

effect on caspase activity (caspase 3 [8]): did not reveal any effect
Compound: NCCCCN [putrescine]
number of floating cells compared to control (IEC-6 cells [1]; exogenous 10 μM putrescine along with DFMO): restored the number of floating cells to control levels
